Measured values published in BindingDB's records for doi:10.1110/ps.0229303 (Gsk, 2003).

Key:
Test in all cases: PDF Inhibition Assay
Conditions in all cases: pH 7.6; 25 °C
Peptide deformylase [1] = target: T1, Peptide deformylase (Haemophilus influenzae (strain ATCC 51907 / DSM 11121 / KW20 / Rd), UniProt P44786)
T1 sequence (P44786 whole entry): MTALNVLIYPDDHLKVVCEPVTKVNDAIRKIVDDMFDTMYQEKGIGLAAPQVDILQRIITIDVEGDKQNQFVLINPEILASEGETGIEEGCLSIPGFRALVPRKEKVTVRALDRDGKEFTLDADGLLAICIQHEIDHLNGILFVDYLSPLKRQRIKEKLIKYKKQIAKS
Experimental: (§1) Enzyme assay was carried out in 96-well microtiter plates with a SpectraMax plate reader (Molecular Devices Corp.). PDF activity was measured using a continuous enzyme-linked assay. The reaction was triggered with the addition of PDF enzyme, and absorbance was monitored for 15 min at 340 nm. […] A standard curve with NADH concentrations ranging from 0 to 1 mM was performed. The velocities obtained in mOD340 nm per minute were then converted to micromolar NADH produced per second to calculate Vmax. To determine IC50s, PDF activity was measured in the presence of increasing concentrations of the inhibitor in the presence of substrate concentration corresponding to Km values. All data fitting was carried out with nonlinear least squares regression using the commercial software package Graphit.

Peptide deformylase [2] = target: T2, Peptide deformylase (Escherichia coli (strain K12), UniProt P0A6K3)
T2 sequence (P0A6K3 whole entry): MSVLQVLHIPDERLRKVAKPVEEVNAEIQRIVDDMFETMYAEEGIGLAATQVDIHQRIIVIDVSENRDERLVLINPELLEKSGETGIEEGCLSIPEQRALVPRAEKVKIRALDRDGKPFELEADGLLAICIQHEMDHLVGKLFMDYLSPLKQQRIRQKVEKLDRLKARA
Experimental: as §1

Peptide deformylase [3] = target: T3, Peptide deformylase (Staphylococcus aureus (strain Mu50 / ATCC 700699), UniProt P68825)
T3 sequence (P68825 whole entry): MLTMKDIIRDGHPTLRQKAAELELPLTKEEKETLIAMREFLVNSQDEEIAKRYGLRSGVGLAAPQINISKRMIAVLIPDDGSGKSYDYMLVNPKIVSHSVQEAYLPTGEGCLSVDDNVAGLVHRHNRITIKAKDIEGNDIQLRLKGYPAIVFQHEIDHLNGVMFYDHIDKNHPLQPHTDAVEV
Experimental: as §1

Peptide deformylase [4] = target: T4, Peptide deformylase (Streptococcus pneumoniae (strain ATCC BAA-255 / R6), UniProt Q8DP79)
T4 sequence (Q8DP79 whole entry): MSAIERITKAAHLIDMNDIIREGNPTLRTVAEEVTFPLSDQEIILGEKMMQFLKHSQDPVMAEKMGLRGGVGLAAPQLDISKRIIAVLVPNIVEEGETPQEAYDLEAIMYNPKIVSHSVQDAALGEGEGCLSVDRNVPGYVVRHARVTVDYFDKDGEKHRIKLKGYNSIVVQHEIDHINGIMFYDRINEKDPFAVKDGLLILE
Experimental: as §1

SMILES | IC50 (Peptide deformylase [1]) [nM] | IC50 (Peptide deformylase [2]) [nM] | IC50 (Peptide deformylase [3]) [nM] | IC50 (Peptide deformylase [4]) [nM]
O=CN(O)CCOc1cccc(C(=O)c2ccccc2)c1 [N-[2-(3-benzoylphenoxy)ethyl]-N-hydroxyformamide] | 320 | – | – | –
O=CN(O)CCCc1ccccc1 [N-hydroxy-N-(3-phenylpropyl)formamide] | 150 | 160 | 250 | 400
Cc1cccc(CCCN(O)C=O)n1 [N-hydroxy-N-[3-(6-methylpyridin-2-yl)propyl]formamide] | 1040 | – | – | –
